Broadly, the inhibition is the change of the read-out against control, counted positive when it falls. As a reminder, the fold induction is the ratio of treated to control signal. A word on the Dmax: it is the greatest extent of degradation seen. In general, viability refers to a per cent measure of how many cells are alive, often set against a control.

The record followed here is patent publication US20220153751A1, “BIFUNCTIONAL COMPOUNDS” (BioTheryX, Inc., priority 2018, published 2022).

What all share (type): cell-based
For assay [1], the system named is IL-6. Description: IL-6 inhibition assay, LPS-induced PBMCs / CD14+ monocytes (Meso Scale). To be noted: 1 h pretreatment, 100 ng/mL LPS 18-24 h. An outline of the steps: (§1)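 Thawed human PBMCs or CD14+ mobilized peripheral blood monocytes, 200,000 cells/well in RPMI-1640/10% FBS, pretreated with compound or DMSO 1 h, then stimulated with 100 ng/mL LPS for 18-24 h. Supernatant cytokine measured by Meso Scale; % inhibition binned A–D (<50%, 50–70%, 70–90%, ≥90%), fold-change binned A–D (≤0.1, ≤0.5, ≤1, >1).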

The subject of assay [2] is IL-2. The assay is described as follows: IL-2 fold-change assay, anti-CD3 stimulated PBMCs (Mesoscale). To be noted: PBMC, PBMCs on anti-human CD3, 24 h, fold difference from the DMSO control. On the procedure: For the IL-2 analysis, 96 well plates were precoated with 1 μg/mL anti-human CD3 antibody (OK3, eBioscience Inc., San Diego, Calif.). After washing with PBS, the indicated compound was added (50 μL/well) followed by PBMCs diluted at 3-4 million cells/mL (150 μL/well). Plates were incubated for 24 h and the supernatants collected for Mesoscale IL-2 analysis. IL-2 activity is measured as fold difference from the DMSO control.
In Table 6, the % inhibition values are reported as “A”, “B”, “C”, or “D”. “A” represents a % inhibition value of less than 50% (value <50%). “B” represents a % inhibition value of equal to or more than 50% and less than 70% (50%≤value<70%). “C” represents a % inhibition value of equal to or more than 70% and less than 90% (70%≤value<90%). “D” represents a % inhibition value of equal or more than 90% (value ≥90%). In Table 7, the fold-change values are reported as “A”, “B”, “C”, or “D”. “A” represents a fold-change value of equal to or less than 0.1 (value ≤0.1). “B” represents a fold-change value of more than 0.1 and equal to or less than 0.5 (0.1<value≤0.5). “C” represents a fold-change value of more than 0.5 and equal to or less than 1 (0.5<value≤1). “D” represents a fold-change value of more than 1 (value >1).

For assay [3], the target named is T1, IKAROS (Homo sapiens, UniProt Q13422+Q96SW2).
T1 construct: endogenous in cells; host or cells: MV-4-11
The assay is described as follows: IKAROS degradation assay (Western blot, MV-4-11 cells). As to conditions: MV4-11, 6-8 h. The procedure, abridged:
(§2)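 Immunoblot-based % degradation, scored A–D in 25% steps (D ≥75%). Compound exposure was 6-8 h.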

For assay [4], the system named is TNF-α. The assay is described as follows: TNF-α inhibition assay, LPS-induced PBMCs / CD14+ monocytes (Meso Scale). As to conditions: 1 h pretreatment, 100 ng/mL LPS 18-24 h. The procedure, abridged:
as §1

The subject of assay [5] is IL-1β. Description: IL-1β inhibition assay, LPS-induced PBMCs / CD14+ monocytes (Meso Scale). As to conditions: 1 h pretreatment, 100 ng/mL LPS 18-24 h. The procedure, abridged:
as §1

Assay [6] relates to MOLM-13 cells. Description: MOLM-13 cell viability assay (CellTiter-Glo). To be noted: Homo sapiens, MOLM-13, 72 h, 3 days, read-out: MOLM-13 Cell Viability % DMSO at 1 μM. An outline of the steps: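 MOLM-13 cells at 2500 cells/well were exposed to compound for 3 days at 37 °C. Viability was read by CellTiter-Glo luminescence and expressed as % of DMSO control, binned A (<50%), B (50–<70%), C (70–<90%) or D (≥90%).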
A general note: Cellular ATP, detected with luciferase, serves as a proxy for viable cell number.

Assay [7] concerns the target T2, CK1α (Homo sapiens, UniProt P48729+Q96SW2).
T2 construct: Whole cell extracts were prepared using RIPA buffer; endogenous in cells; host or cells: MV-4-11
Description: CK1α degradation assay (Western blot, MV-4-11 cells). As to conditions: MV4-11, 6-8 h. An outline of the steps: as §2
On the technique in general: In western blotting, separated proteins are transferred to a membrane and probed.

The target in assay [8] is T3, CDK16 (Homo sapiens, UniProt Q00536).
T3 construct: Whole cell extracts were prepared using RIPA buffer; endogenous in cells; host or cells: MV-4-11
The assay is described as follows: CDK16 degradation assay (Western blot, MV-4-11 cells). As to conditions: 6-8 h; for Dmax at 0.1 µM: MV4-11, 0.1 μM; for Dmax at 1 µM: MV4-11, 1 μM. An outline of the steps: as §2

Assay [9] deals with T4, CDK9 (Homo sapiens, UniProt P50750).
T4 construct: Whole cell extracts were prepared using RIPA buffer; endogenous in cells; host or cells: MV-4-11
Description: CDK9 degradation assay (Western blot, MV-4-11 cells). To be noted: 6-8 h; for Dmax at 0.1 µM: MV4-11, 0.1 μM; for Dmax at 1 µM: MV4-11, 1 μM. The procedure, abridged: as §2

For assay [10], the target named is T5, GSPT1 (Homo sapiens, UniProt P15170+Q96SW2).
T5 construct: Whole cell extracts were prepared using RIPA buffer; endogenous in cells; host or cells: MV-4-11
The assay is described as follows: GSPT1 degradation assay (Western blot, MV-4-11 cells). As to conditions: MV4-11, 6-8 h. An outline of the steps: as §2

Each structure is given as a SMILES string.

T1 sequence (Q13422 whole entry): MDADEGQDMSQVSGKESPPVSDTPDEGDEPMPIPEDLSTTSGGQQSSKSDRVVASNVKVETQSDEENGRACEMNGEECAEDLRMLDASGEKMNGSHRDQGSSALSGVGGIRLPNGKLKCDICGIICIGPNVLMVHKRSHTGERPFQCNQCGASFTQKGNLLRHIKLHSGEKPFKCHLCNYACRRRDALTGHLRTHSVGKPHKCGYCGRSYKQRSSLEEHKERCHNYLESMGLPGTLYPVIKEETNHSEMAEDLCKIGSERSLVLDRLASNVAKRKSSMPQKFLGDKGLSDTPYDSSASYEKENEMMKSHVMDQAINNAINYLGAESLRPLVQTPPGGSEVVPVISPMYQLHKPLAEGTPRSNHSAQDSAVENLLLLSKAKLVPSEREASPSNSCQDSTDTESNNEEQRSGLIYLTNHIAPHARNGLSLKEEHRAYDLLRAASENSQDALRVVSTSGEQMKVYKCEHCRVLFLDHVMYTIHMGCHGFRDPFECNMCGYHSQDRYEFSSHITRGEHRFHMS
T1 sequence (Q96SW2 whole entry): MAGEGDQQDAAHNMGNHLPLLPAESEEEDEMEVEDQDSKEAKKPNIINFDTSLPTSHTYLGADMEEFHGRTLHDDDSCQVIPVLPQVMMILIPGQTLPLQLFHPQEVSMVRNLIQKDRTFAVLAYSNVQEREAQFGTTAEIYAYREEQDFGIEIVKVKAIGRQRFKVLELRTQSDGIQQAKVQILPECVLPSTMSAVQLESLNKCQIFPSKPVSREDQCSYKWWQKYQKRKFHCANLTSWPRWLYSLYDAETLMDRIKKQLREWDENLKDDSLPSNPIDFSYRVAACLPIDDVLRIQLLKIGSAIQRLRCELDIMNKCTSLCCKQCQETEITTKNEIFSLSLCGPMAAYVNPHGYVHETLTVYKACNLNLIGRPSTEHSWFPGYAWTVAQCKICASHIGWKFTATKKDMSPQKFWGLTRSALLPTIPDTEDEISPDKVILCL
T1 sequence (Q16531 whole entry partner): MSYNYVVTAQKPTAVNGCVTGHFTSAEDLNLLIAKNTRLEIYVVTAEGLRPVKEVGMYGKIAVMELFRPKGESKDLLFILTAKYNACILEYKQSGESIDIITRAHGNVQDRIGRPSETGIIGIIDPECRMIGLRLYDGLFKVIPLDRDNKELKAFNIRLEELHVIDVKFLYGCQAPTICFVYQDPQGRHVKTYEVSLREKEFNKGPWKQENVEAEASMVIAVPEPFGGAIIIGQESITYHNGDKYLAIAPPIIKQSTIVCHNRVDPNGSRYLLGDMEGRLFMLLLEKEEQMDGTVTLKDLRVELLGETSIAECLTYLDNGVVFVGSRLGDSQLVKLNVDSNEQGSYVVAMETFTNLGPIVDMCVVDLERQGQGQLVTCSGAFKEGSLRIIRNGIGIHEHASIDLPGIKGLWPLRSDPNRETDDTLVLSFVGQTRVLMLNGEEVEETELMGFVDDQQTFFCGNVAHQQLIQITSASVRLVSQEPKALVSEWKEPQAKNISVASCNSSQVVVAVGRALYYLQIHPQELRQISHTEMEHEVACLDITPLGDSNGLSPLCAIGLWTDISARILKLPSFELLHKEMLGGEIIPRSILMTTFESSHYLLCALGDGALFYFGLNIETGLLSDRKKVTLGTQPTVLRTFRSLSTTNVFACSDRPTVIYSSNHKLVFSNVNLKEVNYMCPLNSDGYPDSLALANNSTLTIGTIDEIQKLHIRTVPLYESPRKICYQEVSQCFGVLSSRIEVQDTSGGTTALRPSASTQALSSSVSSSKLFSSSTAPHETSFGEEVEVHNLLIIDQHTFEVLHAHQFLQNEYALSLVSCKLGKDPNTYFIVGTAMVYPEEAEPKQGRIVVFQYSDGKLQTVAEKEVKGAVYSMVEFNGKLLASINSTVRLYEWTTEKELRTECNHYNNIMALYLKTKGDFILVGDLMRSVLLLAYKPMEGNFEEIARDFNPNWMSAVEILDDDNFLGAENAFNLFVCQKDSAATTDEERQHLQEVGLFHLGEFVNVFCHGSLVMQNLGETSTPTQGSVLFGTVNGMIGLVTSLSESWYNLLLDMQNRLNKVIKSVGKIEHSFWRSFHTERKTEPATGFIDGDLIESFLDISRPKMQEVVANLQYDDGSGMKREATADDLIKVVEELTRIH
T4 sequence (P50750 whole entry): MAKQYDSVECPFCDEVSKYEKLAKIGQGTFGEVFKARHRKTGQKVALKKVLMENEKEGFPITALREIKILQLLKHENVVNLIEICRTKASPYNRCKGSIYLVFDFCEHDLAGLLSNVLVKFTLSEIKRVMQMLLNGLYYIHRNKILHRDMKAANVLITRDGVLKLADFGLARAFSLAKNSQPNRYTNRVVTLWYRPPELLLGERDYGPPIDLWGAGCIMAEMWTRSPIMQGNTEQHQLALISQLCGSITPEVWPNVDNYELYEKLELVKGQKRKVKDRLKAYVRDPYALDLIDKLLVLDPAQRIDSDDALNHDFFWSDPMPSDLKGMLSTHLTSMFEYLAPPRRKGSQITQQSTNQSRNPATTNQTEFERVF
T3 sequence (Q00536 whole entry): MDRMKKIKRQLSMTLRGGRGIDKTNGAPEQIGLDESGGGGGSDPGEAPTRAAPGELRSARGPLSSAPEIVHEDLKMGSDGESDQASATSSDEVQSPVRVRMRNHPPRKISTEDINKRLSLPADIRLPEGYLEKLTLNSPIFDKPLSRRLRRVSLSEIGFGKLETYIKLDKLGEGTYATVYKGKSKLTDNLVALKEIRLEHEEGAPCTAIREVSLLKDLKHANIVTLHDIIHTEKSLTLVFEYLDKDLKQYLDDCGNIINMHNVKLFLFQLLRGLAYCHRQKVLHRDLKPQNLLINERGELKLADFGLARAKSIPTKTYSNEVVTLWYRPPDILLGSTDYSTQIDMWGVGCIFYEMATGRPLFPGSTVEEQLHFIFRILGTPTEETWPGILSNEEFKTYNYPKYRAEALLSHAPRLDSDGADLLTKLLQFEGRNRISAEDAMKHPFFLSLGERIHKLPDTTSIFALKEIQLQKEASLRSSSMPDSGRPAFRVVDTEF
T5 sequence (P15170 whole entry): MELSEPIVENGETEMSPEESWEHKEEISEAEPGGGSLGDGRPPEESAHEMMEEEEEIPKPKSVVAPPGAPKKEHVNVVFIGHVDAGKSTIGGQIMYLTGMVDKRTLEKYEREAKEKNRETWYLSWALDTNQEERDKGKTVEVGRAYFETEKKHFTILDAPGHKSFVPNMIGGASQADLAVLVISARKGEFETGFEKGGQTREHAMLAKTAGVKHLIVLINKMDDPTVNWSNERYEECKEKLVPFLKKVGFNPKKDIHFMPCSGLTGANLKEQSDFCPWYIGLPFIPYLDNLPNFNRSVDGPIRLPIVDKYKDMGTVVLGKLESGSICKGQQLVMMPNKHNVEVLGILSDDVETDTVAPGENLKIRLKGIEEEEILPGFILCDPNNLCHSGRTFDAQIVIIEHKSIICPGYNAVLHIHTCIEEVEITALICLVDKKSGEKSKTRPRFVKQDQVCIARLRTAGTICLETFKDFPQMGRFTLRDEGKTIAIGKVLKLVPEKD
T5 sequence (Q96SW2 whole entry): as the sequence (Q96SW2 whole entry) above
T5 sequence (Q16531 whole entry partner): as the sequence (Q16531 whole entry partner) above
T2 sequence (P48729 whole entry): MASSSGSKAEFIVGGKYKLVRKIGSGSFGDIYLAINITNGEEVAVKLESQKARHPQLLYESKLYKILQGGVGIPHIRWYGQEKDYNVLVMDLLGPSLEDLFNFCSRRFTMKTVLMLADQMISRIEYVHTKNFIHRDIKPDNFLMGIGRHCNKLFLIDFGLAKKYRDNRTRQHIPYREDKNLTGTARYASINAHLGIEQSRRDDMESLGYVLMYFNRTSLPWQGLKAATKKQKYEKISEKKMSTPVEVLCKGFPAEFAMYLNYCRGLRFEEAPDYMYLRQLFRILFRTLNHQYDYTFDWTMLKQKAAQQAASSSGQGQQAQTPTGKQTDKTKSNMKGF
T2 sequence (Q96SW2 whole entry): as the sequence (Q96SW2 whole entry) above
T2 sequence (Q16531 whole entry partner): as the sequence (Q16531 whole entry partner) above

Consider `CC(C)(C)c1cnc(CSc2cnc(NC(=O)C3CCN(CC(=O)NCCOCCNC(=O)NCc4scc5c4CN(C4CCC(=O)NC4=O)C5=O)CC3)s2)o1` (stereo not shown) [Compound 2, 3-{6-Oxo-2-[(3-{2-[2-(2-{4-[(5-{[5-(tert-butyl)-1,3-oxazol-2-yl]methylthio}-1,3-thiazol-2-ylamino)carbonyl]-1-piperidyl}acetylamino)ethoxy]ethyl}ureido)methyl]-3-thia-7-azabicyclo[3.3.0]octa-1,4-dien-7-yl}-2,6-piperidinedione], for which the inhibition at 1 µM in [1] was above 90%; in assay [4], 70 to 90%; in assay [5], above 90%. For the same compound, the fold induction at 1 µM in assay [2] fell in the range of 0.1 to 0.5. In assay [3], this compound registered a Dmax at 1 µM of 25 to 50%. Besides, the viability at 1 µM in assay [6] is above 90%.
For the compound `CC(C)(C)c1cnc(CSc2cnc(NC(=O)C3CCN(CC(=O)NCCOCCNC(=O)NCc4cc5c(s4)C(=O)N(C4CCC(=O)NC4=O)C5)CC3)s2)o1` (stereo not shown) [Compound 3, 3-{8-Oxo-3-[(3-{2-[2-(2-{4-[(5-{[5-(tert-butyl)-1,3-oxazol-2-yl]methylthio}-1,3-thiazol-2-ylamino)carbonyl]-1-piperidyl}acetylamino)ethoxy]ethyl}ureido)methyl]-2-thia-7-azabicyclo[3.3.0]octa-1(5),3-dien-7-yl}-2,6-piperidinedione], the inhibition at 1 µM is above 90% in assay [1], 70 to 90% in assay [4] and above 90% in assay [5]. This compound had a Dmax at 1 µM in assay [7] of 25 to 50%. In addition, in [2], the fold induction at 1 µM is 0.1 to 0.5. Moreover, the viability at 1 µM in assay [6] was above 90%.
Regarding `Cn1ncc(-c2nc(N[C@H]3CC[C@H](NCCCCCCNC(=O)NCc4cc5c(s4)C(=O)N(C4CCC(=O)NC4=O)C5)CC3)ncc2F)c1CC1CC1` (stereo partly shown) [Compound 21, 1-(6-(((1r,4r)-4-((4-(5-(cyclopropylmethyl)-1-methyl-1H-pyrazol-4-yl)-5-fluoropyrimidin-2-yl)amino)cyclohexyl)amino)hexyl)-3-((5-(2,6-dioxopiperidin-3-yl)-6-oxo-5,6-dihydro-4H-thieno[2,3-c]pyrrol-2-yl)methyl)urea], the inhibition at 1 µM in [1], in assay [4] and in assay [5] was below 50% each time. Also, the fold induction at 1 µM in assay [2] lay within 0.1 to 0.5. Also, the Dmax at 1 µM in [3] is at least 75%. For the same compound, the viability at 1 µM in assay [6] is above 90%.
Regarding `CC(C)(C)c1cnc(CSc2cnc(NC(=O)C3CCN(CC(=O)NCCOCCOCCNCC(=O)NCc4scc5c4CN(C4CCC(=O)NC4=O)C5=O)CC3)s2)o1` (stereo not shown) [Compound 26, N-(5-(((5-(tert-butyl)oxazol-2-yl)methyl)thio)thiazol-2-yl)-1-(1-(5-(2,6-dioxopiperidin-3-yl)-4-oxo-5,6-dihydro-4H-thieno[3,4-c]pyrrol-1-yl)-3,15-dioxo-8,11-dioxa-2,5,14-triazahexadecan-16-yl)piperidine-4-carboxamide], the greatest degradation seen (Dmax) at 0.1 µM lay within 25 to 50% in assay [8] and 50 to 75% in assay [9]. Besides, the Dmax at 1 µM in [8] is below 25%; in assay [9], at least 75%; in assay [3], 50 to 75%. For the same compound, the inhibition at 1 µM in assay [1] was above 90%; in assay [4] it was 70 to 90%; in assay [5], above 90%. Also, the fold induction at 1 µM in assay [2] was at most 0.1. In addition, in assay [6], the viability at 1 µM was above 90%.
Consider `Cn1ncc(-c2nc(N[C@H]3CC[C@H](NCC(=O)NCCOCCOCC(=O)NCc4ccc(COc5cccc6c5CN(C5CCC(=O)NC5=O)C6=O)cc4)CC3)ncc2Cl)c1CC1CC1` (stereo partly shown) [Compound 28, 2-(((1r,4r)-4-((5-chloro-4-(5-(cyclopropylmethyl)-1-methyl-1H-pyrazol-4-yl)pyrimidin-2-yl)amino)cyclohexyl)amino)-N-(2-(2-(2-((4-(((2-(2,6-dioxopiperidin-3-yl)-1-oxoisoindolin-4-yl)oxy)methyl)benzyl)amino)-2-oxoethoxy)ethoxy)ethyl)acetamide], for which the Dmax at 1 µM in [10] was below 25%; in [3] it was 50 to 75%. In addition, the inhibition at 1 µM in assay [1], in [4] and in [5] was above 90% throughout. Moreover, the fold induction at 1 µM in assay [2] was at most 0.1. Moreover, the viability at 1 µM in assay [6] is above 90%.
With `CC(C)(C)c1cnc(CSc2cnc(NC(=O)C3CCN(CC(=O)NCCOCCOCCOCCNCC(=O)NCc4cc5c(s4)C(=O)N(C4CCC(=O)NC4=O)C5)CC3)s2)o1` (stereo not shown) [Compound 42, N-(5-(((5-(tert-butyl)oxazol-2-yl)methyl)thio)thiazol-2-yl)-1-(1-(5-(2,6-dioxopiperidin-3-yl)-6-oxo-5,6-dihydro-4H-thieno[2,3-c]pyrrol-2-yl)-3,18-dioxo-8,11,14-trioxa-2,5,17-triazanonadecan-19-yl)piperidine-4-carboxamide], the Dmax at 0.1 µM in [8] was below 25%; in assay [9], 25 to 50%. Besides, the Dmax at 1 µM in assay [8] is below 25%; in assay [9], at least 75%; in [3], 25 to 50%. Also, the inhibition at 1 µM in assay [1] was above 90%; in assay [4] it was below 50%; in assay [5], above 90%. Further, in assay [2], the fold induction at 1 µM fell in the range of 0.1 to 0.5. Besides, in [6], the viability at 1 µM was 70 to 90%.
On to `CC(C)(C)c1cnc(CSc2cnc(NC(=O)C3CCN(CCCCCCCNCC(=O)NCc4cc5c(s4)C(=O)N(C4CCC(=O)NC4=O)C5)CC3)s2)o1` (stereo not shown) [Compound 57, N-(5-(((5-(tert-butyl)oxazol-2-yl)methyl)thio)thiazol-2-yl)-1-(7-((2-(((5-(2,6-dioxopiperidin-3-yl)-6-oxo-5,6-dihydro-4H-thieno[2,3-c]pyrrol-2-yl)methyl)amino)-2-oxoethyl)amino)heptyl)piperidine-4-carboxamide], for which the inhibition at 1 µM in assay [1], in [4] and in [5] was above 90% throughout. The fold induction at 1 µM in assay [2] is at most 0.1. In addition, the Dmax at 1 µM in [3] was 25 to 50%. Moreover, the viability at 1 µM in assay [6] was above 90%.
For the compound `Cc1nc2c(CNC(=O)NCCCCCCCCN[C@H]3CC[C@H](Nc4ncc(Cl)c(-c5cnn(C)c5CC5CC5)n4)CC3)scc2c(=O)n1C1CCC(=O)NC1=O` (stereo partly shown) [Compound 61, 1-(8-(((1r,4r)-4-((5-chloro-4-(5-(cyclopropylmethyl)-1-methyl-1H-pyrazol-4-yl)pyrimidin-2-yl)amino)cyclohexyl)amino)octyl)-3-((3-(2,6-dioxopiperidin-3-yl)-2-methyl-4-oxo-3,4-dihydrothieno[3,4-d]pyrimidin-7-yl)methyl)urea], the inhibition at 1 µM in [1], in assay [4] and in [5] was above 90% each time. Further, the fold induction at 1 µM in assay [2] lay in the range of 0.1 to 0.5. The same compound registered a Dmax at 1 µM in assay [3] of 25 to 50%. Also, the viability at 1 µM in assay [6] was above 90%.
With `Cn1ncc(-c2cc(N[C@H]3CC[C@H](NCC(=O)NCCNCC(=O)NCc4cc5c(s4)C(=O)N(C4CCC(=O)NC4=O)C5)CC3)ncc2F)c1CC1CC1` (stereo partly shown) [Compound 63, 2-(((1r,4r)-4-((4-(5-(cyclopropylmethyl)-1-methyl-1H-pyrazol-4-yl)-5-fluoropyridin-2-yl)amino)cyclohexyl)amino)-N-(2-((2-(((5-(2,6-dioxopiperidin-3-yl)-6-oxo-5,6-dihydro-4H-thieno[2,3-c]pyrrol-2-yl)methyl)amino)-2-oxoethyl)amino)ethyl)acetamide], the maximal degradation (Dmax) at 1 µM is below 25% in [10] and 25 to 50% in assay [3]. Also, the fold induction at 1 µM in assay [2] is above 1. For the same compound, the viability at 1 µM in assay [6] is above 90%.
